Data from patent publication US20090149554A1, “WATER-SOLUBLE METAL ALCOHOLATE DERIVATIVES, PRODUCTION METHODS THEREOF, AND SOLID GELATINOUS EXTERNAL PREPARATIONS CONTAINING THE SAME” (SHISEIDO CO., LTD., priority 2005, published 2009).
Read-outs that look alike come from different tables or passages of the source.

Experiments:
[1] = Gel formation on mixing the product with the same amount of water; assay type: physicochemical
Protocol: . Then, the mixture was mixed with stirring at room temperature for 48 hours. After the solid catalyst was separated by filtration, ethanol and acetonitrile were distilled away under reduced pressure, and 4.0 g of transparent viscous liquid was obtained.

[2] = Gelation ability in KGM medium (visual); assay type: physicochemical; settings: room temperature
Protocol: (§1) In order to investigate the gelation ability of the above-described polyhydric alcohol substituted silane derivatives in water, the present inventors visually evaluated the progress of gelation for the 1,3-butylene glycol substituted compound and glycerin substituted compound.
(§2) The gelation ability was evaluated by adding the polyhydric alcohol substituted silane derivative to water or KGM medium to obtain various concentrations, mixing and stirring at room temperature, allowing the solution to stand still, and visually observing the gelation.

[3] = Gelation ability in aqueous solution (visual); assay type: physicochemical; settings: room temperature
Protocol: as §1, §2

[4] = Solubility of polyhydric alcohol substituted silane derivatives in various solvents; assay type: physicochemical; settings: summary of Table 1
Protocol: Subsequently, the present inventors evaluated the solubility of the thus obtained polyhydric alcohol substituted silane derivatives in various solvents.
The evaluation of solubility was conducted by adding a polyhydric alcohol substituted silane derivative into various solvents so that the concentration would be 5 weight %, mixing and stirring at room temperature, allowing them to stand still, and visually observing the solution state. The evaluation criteria were as follows.

papain = target: T1, papain (Carica papaya, UniProt P00784); assay: Stabilization of papain enzyme activity in solid gel on storage; assay type: biochemical
T1 sequence (P00784 134-345): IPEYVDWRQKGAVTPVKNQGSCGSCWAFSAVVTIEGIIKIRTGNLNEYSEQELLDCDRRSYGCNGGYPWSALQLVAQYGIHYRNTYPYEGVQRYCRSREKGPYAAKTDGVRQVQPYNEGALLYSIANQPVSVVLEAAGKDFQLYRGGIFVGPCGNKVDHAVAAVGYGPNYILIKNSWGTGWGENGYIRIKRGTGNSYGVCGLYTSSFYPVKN
Protocol: Into 1 g of water, 0.2 g of the propylene glycol substituted silane derivative, (Si—(OCH2CH2CH2OH)4), was dissolved. Into this solution, 0.2 mL of papain solution (4 μg/mL) was added and mixed, and the samples were charged on a 96-hole plate and allowed to stand for a fixed length of time. Similarly, several test samples were prepared, and they were maintained at various temperatures (0° C., 37° C., room temperature, and 50° C.). After 2 hours and after 3 days, the papain enzyme activity of each sample was measured. The enzyme activity was measured with a plate reader after the enzyme substrate, N-carbobenzoxy-phenylarginine-4-methylcoumarinamide (Z-PheArg-MCA), was directly added into the 96-hole plate and allowed to stand for 20 minutes at room temperature. In Comparative Example 5, the papain enzyme activity was measured in the same way as Example 21 except that the propylene glycol substituted silane derivative was not used.
The values of enzyme activity were standardized by setting the enzyme activity of the comparative example sample that had been stored at 0° C. for 2 hours to 100.0.

Molecule: OCC(O)CO[Si](OCC(O)CO)(OCC(O)CO)OCC(O)CO (stereo not drawn) [Glycerin substituted silane derivative, Si—(O—CH2—CHOH—CH2—OH)4]
- Result of mixing the product with the same amount of water ([1]; room temperature): homogeneous transparent gel
- Appearance (gelation) ([2]; 2.5 % (wt/vol)): Transparent solution, slight thickening after 2 hours, pasty
- Appearance (gelation) ([2]; 5.6 % (wt/vol)): Transparent solution, gelation after 3 hours, some
- Appearance (gelation) ([2]; 11.0 % (wt/vol)): Transparent solution, gelation after 1 hour, some
- Appearance (gelation) ([2]; 21.0 % (wt/vol)): Transparent solution, gelation (ringing gel) after 30
- Appearance (gelation) ([2]; 35.0 % (wt/vol)): Transparent solution, gelation (ringing gel) after 30
- Appearance (gelation) ([3]; 10.0 % (wt/vol)): Transparent, thickening after about 1 week, agar-like soft
- Appearance (gelation) ([3]; 20.0 % (wt/vol)): Translucent low-viscosity gel after 1 day, some
- Appearance (gelation) ([3]; 30.0 % (wt/vol)): Gelation after 1 day, some seeping-out ringing gel

Molecule: OCCCO[Si](OCCCO)(OCCCO)OCCCO [Si—(OCH2CH2CH2OH)4]
- Solubility in other organic solvents [4]: excellent solubility in other organic solvents
- Result of mixing the product with the same amount of water ([1]; room temperature): homogeneous transparent gel

Molecule: CC(O)CCO[Si](OCCC(C)O)(OCCC(C)O)OCCC(C)O (stereo not drawn) [Si—(OCH2CH2CH2OHCH3)4]
- Solubility in other organic solvents [4]: excellent solubility in other organic solvents
- Result of mixing the product with the same amount of water [1]: homogeneous transparent gel
- Appearance (gelation) ([2]; 2.9 % (wt/vol)): Transparent solution, slight thickening after 2 hours, pasty
- Appearance (gelation) ([2]; 5.3 % (wt/vol)): Transparent solution, gelation after 1 hour, some
- Appearance (gelation) ([2]; 10.4 % (wt/vol)): Transparent solution, gelation after 12 minutes, some
- Appearance (gelation) ([2]; 19.6 % (wt/vol)): Transparent solution, gelation (ringing gel) after 2
- Appearance (gelation) ([2]; 35.4 % (wt/vol)): Transparent solution, gelation (ringing gel) after 1 minute
- Appearance (gelation) ([3]; 10.0 % (wt/vol)): Colloidal turbidity, slight thickening after about 1 week
- Appearance (gelation) ([3]; 20.0 % (wt/vol)): Colloidal turbidity, thickening after 2 days, translucent
- Appearance (gelation) ([3]; 30.0 % (wt/vol)): Colloidal turbidity, gelation after 2 days, seeping-out

Molecule: OCCO[Si](OCCO)(OCCO)OCCO [tetra(2-hydroxyethoxy)silane]
- Result of mixing the product with the same amount of water ([1]; room temperature): homogeneous transparent gel

B1: Comparative Example 5: papain sample prepared as Example 21 except that the propylene glycol substituted silane derivative was not used (protein, UniProt P00784 134-345, looked up)
Papain: T1 sequence (P00784 134-345)
- Papain enzyme activity (standardized, Comparative Example 5 at 0° C. for 2 hours = 100.0) (papain; After 2 hours, 0° C.): 100.0
- Papain enzyme activity (standardized, Comparative Example 5 at 0° C. for 2 hours = 100.0) (papain; After 2 hours, 37° C.): 98.3
- Papain enzyme activity (standardized, Comparative Example 5 at 0° C. for 2 hours = 100.0) (papain; After 2 hours, 50° C.): 67.1
- Papain enzyme activity (standardized, Comparative Example 5 at 0° C. for 2 hours = 100.0) (papain; After 2 hours, Room temperature): 96.5
- Papain enzyme activity (standardized, Comparative Example 5 at 0° C. for 2 hours = 100.0) (papain; After 3 days, 0° C.): 98.9
- Papain enzyme activity (standardized, Comparative Example 5 at 0° C. for 2 hours = 100.0) (papain; After 3 days, 37° C.): 18.6
- Papain enzyme activity (standardized, Comparative Example 5 at 0° C. for 2 hours = 100.0) (papain; After 3 days, 50° C.): 2.2
- Papain enzyme activity (standardized, Comparative Example 5 at 0° C. for 2 hours = 100.0) (papain; After 3 days, Room temperature): 34.5
